Where two headings read alike, the source gives them in different places.
Columns and labels:
CD235+ erythroblasts = experiment: CD235+ erythroid expansion of differentiating human cord blood CD34+ progenitors (shRPS19/shRPL11 DBA models), flow cytometry; format: cell-based; conditions: for CD235+ erythroid expansion in RPS19-insufficiency, % of control: 6.6% of controls (shLuc) untreated; for increase of erythroid expansion in RPS19-insufficiency: concentrations published to block TGFβ signaling, 15 days; for fold increase of erythroid expansion in response to SD208: 5 μM
Protocol: FIG. 7. […] (a) Differentiating cord blood CD34+ progenitors were transduced with shRNA against luciferase or RPS19 and treated with inhibitors at working concentrations for TGFβ inhibition every three days. Cells were counted and CD235+ erythroid cells were assessed by flow cytometry after 15 days. (b) Prior to flow cytometry, 5000 cells per group were taken from differentiating cultures for NLK kinase assay. (c) CD34+ progenitors were transduced with shRNA against luciferase or RPS19 and non-targeting or siRNA against NLK. After sorting, samples were split into two groups and either treated with vehicle or SD208 every three days. After 15 days cells were counted and subject to flow cytometry to compare the expansion of maturing CD235+ erythroid (left panel) and CD11b+ myeloid cells (right panel). (d) Cord Blood CD34+ progenitors were transduced with shRNA against luciferase (left panel) or RPS19 (right panel) differentiated in erythroid media for 15 days alone, or in the presence of SB525334 or SD208 at 5 μM. Cells were counted and CD235+ erythroid (D—upper) and CD11b+ myeloid cell (D—lower) percentages were determined by flow cytometry. The number of erythroid or myeloid cells is expressed as a percentage of the number of that lineage with no cytokine or drug treatment.
FIG. 8. […] Human cord blood CD34+ progenitors were transduced with lentivirus co-expressing GFP with shRNA against luciferase (shLuc), RPS19 (shRPS19) or RPL11 (shRPL11). After 36 hours cells GFP+ cells were differentiated in erythroid media in the presence or absence of 5 μM SD208 for 15 days. Cells were counted and assessed for cell surface expression of CD235. (a) The percentage of CD235+ cells was multiplied by the cell count and values were compared as a percentage of untreated controls. (b) Normalizing values relative to untreated RPS19-insufficiency progenitors facilitates direct comparison of erythropoiesis between untreated and SD208-treated cultures. (c) Approximately 3000 cells were removed from differentiating treatments at day 6 and NLK activity was assessed. Values were normalized to reflect a fold induction relative to untreated controls. (d) Lin-Kit+ hematopoietic progenitors were obtained from three mouse embryos expressing tetracycline-inducible shRNA against RPS19 at day E14.5 or three untreated mice, and thee mature RPL11^+/+ or three mature RPL11^+/lox mice treated with tamoxifen for eight weeks. Cells were grown in the presence or absence of doxycycline and/or SD208 for eight days prior to counting and assessing for ter119 surface expression. Values were expressed as a percentage relative to untreated controls (e) and directly comparing the effect of SD208 on erythropoiesis in ribosomal-insufficiency by expressing values relative to untreated ribosome-insufficient cultures (f). At day 5 approximately 3000 cells were assayed for NLK kinase assay (g). CD34+ HSPCs were isolated from three healthy control and three DBA patient mononuclear bone marrow aspirates by magnetic bead sorting and differentiated in the presence or absence of SD208 for 14 days. After counting the total cell population, the ratio of CD235+ erythroblasts was determined by flow cytometry and number of CD235+ erythroblasts calculated. This was expressed as a percentage of the average number of erythroid cells present in untreated healthy controls. (h) The direct effect of SD208 on erythroid expansion in DBA patient samples was calculated following normalization of untreated DBA patient samples as 1-fold, (i) At day five, 3000 cells from each of the differentiating cultures was analyzed for NLK activity by kinase assay and are expressed as a fold induction relative to untreated healthy controls.

[1] = test system: c-Kit+ erythroid progenitors in murine RPS19-insufficiency; experiment: c-Kit+ erythroid expansion screen, tet-shRPS19 murine fetal liver cells (Cell titer-Glo); format: cell-based, mouse; conditions: for rescue of c-Kit+ erythroid expansion: 10 μM, murine RPS19-insufficient model; for EC50: read-out: EC50 of rescue of erythroid growth in murine RPS19-insufficiency
miR-208 = experiment: miRNA expression in vehicle-, metformin- and ginsenoside Rb1-treated HSPCs; format: cell-based, human
Text: The abundance of let-7, miR-30 miR-144 and miR-132 were expressed 40.1-, 2.2-, 5.0- and 18.3-fold higher than miR-208, whereas miR-208 was expressed 1.6- and 2.1-fold higher than miR-199 and miR-499. MiR-26a (induced by metformin) expression was 1.4-fold higher than miR-208.

NLK 3′UTR = experiment: Luciferase fused to NLK 3′UTR in differentiating HSPCs; format: cell-based, human
Protocol: We generated a series of truncated NLK 3′UTRs fused to the luciferase gene and transduced them into control and RPS19-insufficient differentiating HSPCs. Cells were treated with increasing concentrations of ginsenoside Rb1 or metformin and luciferase activity assessed.

Cc1cccc(-c2nn3c(c2-c2ccnc4ccc(C(N)=O)cc24)CCC3)n1 [Galunisertib]
CD235+ erythroid expansion in RPS19-insufficiency, % of control (CD235+ erythroblasts): 21% | increase of erythroid expansion in RPS19-insufficiency (CD235+ erythroblasts): 3.2 fold

NC(=O)c1ccc(-c2nc(-c3ccc4c(c3)OCO4)c(-c3ccccn3)[nH]2)cc1 [SB431542]
rescue of c-Kit+ erythroid expansion [1]: significantly rescued | EC50 ([1]; Mus musculus): 5 µM | CD235+ erythroid expansion in RPS19-insufficiency, % of control (CD235+ erythroblasts): 21% | increase of erythroid expansion in RPS19-insufficiency (CD235+ erythroblasts): 3.2 fold

Fc1ccc(Cl)cc1-c1nc(Nc2ccncc2)c2nccnc2n1 [SD208]
rescue of c-Kit+ erythroid expansion [1]: significantly rescued | EC50 [1]: 0.7 µM | CD235+ erythroid expansion in RPS19-insufficiency, % of control (CD235+ erythroblasts): 41.5% | fold increase of erythroid expansion in response to SD208 (CD235+ erythroblasts; RPL11-insufficiency): 6.9 fold | erythroid expansion, % of untreated controls (CD235+ erythroblasts; RPL11-insufficiency, SD208 5 μM, 5.8% untreated): 36.7% | fold increase of erythroid expansion in response to SD208 (CD235+ erythroblasts; RPS19-insufficiency): 4.7 fold | erythroid expansion, % of untreated controls (CD235+ erythroblasts; RPS19-insufficiency, SD208 5 μM, 8.7% untreated): 38.7% | RPS19-insufficient erythroid expansion, fold of non-TGFβ-treated cells (CD235+ erythroblasts; TGFβ-treated, SD208 5 μM): 4.1 fold | increase of erythroid expansion in RPS19-insufficiency (CD235+ erythroblasts): 6.3 fold

CC(C)=CCC[C@](C)(O[C@@H]1O[C@H](CO[C@@H]2O[C@H](CO)[C@@H](O)[C@H](O)[C@H]2O)[C@@H](O)[C@H](O)[C@H]1O)[C@H]1CC[C@]2(C)[C@@H]1[C@H](O)C[C@@H]1[C@@]3(C)CC[C@H](O[C@@H]4O[C@H](CO)[C@@H](O)[C@H](O)[C@H]4O[C@@H]4O[C@H](CO)[C@@H](O)[C@H](O)[C@H]4O)C(C)(C)[C@@H]3CC[C@]12C [ginsenoside Rb1]
induction of miR-208 (miR-208; ginsenoside Rb1-treated HSPCs): 1.9 fold | reduction of luciferase activity (NLK 3′UTR) (NLK 3′UTR; 50 mM ginsenoside Rb1): 35.9%

CN(C)C(=N)N=C(N)N [metformin]
induction of miR-499, miR-208, miR-132 (miR-208; metformin-treated HSPCs): None of these miRNAs were induced | reduction of luciferase activity (NLK 3′UTR) (NLK 3′UTR; metformin): 67.5%
